Columns and labels:
[1] = target: T1, BglB (β-glucosidase from B. subtilis RA10) (Bacillus subtilis, UniProt P42403); test: β-glucosidase activity with added glucose ([…]); format: biochemical; conditions: inhibitor (product); weak inhibition
T1 construct: gene bglC; full-length GH1 gene (1437 bp, start MIHKKQG, end TNGKSL fixed by degenerate primers) in pET28a+ (BamHI/SalI), E. coli BL21(DE3); Asn169-Glu170, nucleophile Glu377

[2] = target: T1, BglB (β-glucosidase from B. subtilis RA10); test: Michaelis-Menten nonlinear regression, p-nitrophenol release; format: biochemical; conditions: 50 mM citrate pH 5.0; 0.5-5.0 mM substrate

T1 sequence (P42403 whole entry): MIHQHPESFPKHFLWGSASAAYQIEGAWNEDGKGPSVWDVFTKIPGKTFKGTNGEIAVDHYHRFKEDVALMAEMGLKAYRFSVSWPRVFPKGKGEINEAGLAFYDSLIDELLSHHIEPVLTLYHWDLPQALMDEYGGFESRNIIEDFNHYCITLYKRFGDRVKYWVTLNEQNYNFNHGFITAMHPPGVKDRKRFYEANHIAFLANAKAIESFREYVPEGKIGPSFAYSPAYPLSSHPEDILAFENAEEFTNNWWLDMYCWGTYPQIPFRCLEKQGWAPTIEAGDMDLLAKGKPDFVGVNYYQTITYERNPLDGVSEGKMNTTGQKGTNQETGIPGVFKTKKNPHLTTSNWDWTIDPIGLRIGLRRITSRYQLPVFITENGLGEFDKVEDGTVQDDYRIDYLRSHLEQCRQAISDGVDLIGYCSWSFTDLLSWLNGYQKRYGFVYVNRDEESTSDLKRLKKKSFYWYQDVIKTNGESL

Row | SMILES | % activity retained at 1000 mM [1] | Km [2]
1 | OC[C@H]1OC(O)[C@H](O)[C@@H](O)[C@@H]1O (stereo partly drawn) [D-glucose] | 70% | 
2 | O=[N+]([O-])c1ccc(O[C@@H]2O[C@H](CO)[C@@H](O)[C@H](O)[C@H]2O)cc1 [pNPG, p-nitrophenyl-β-D-glucopyranoside] |  | 3.9 ± 0.2 mM
